Measured values from patent US20210346524A1, “FUSOGENIC LIPOSOMES FOR SELECTIVE IMAGING OF TUMOR CELLS” (APA- Advanced Technologies Ltd., priority 2018, published 2021).

Assay: Solubilization of fluorophore in aqueous hydration solution for liposome encapsulation
Type: physicochemical

In the case of `CC1(C)C(/C=C/C=C/C=C/C=C2\N(CCCCS(=O)(=O)O)c3ccc4ccccc4c3C2(C)C)=[N+](CCCCS(=O)(=O)[O-])c2ccc3ccccc3c21` [ICG, indocyanine green], the “behaviour in phosphate buffered saline (PBS)” value is reported as “creates aggregates”.
